Laboratory results taken from ChEMBL document CHEMBL1134160 (Bioorg Med Chem Lett, 2001).

Assays:
[1] = target: Neuronal acetylcholine receptor subunit alpha-7 (Mus musculus) (UniProt P49582); assay: Functional activity is expressed as percent efficacy for alpha-7 nAChR.
[2] = target: Serotonin 3 (5-HT3) receptor; assay: In vitro Binding affinity towards 5-hydroxytryptamine 3 receptor was determined; assay type: protein-complex assay
[3] = target: T1, Acetylcholine receptor; alpha1/beta1/delta/gamma (Homo sapiens, UniProt P02708+P07510+P11230+Q07001); assay: In vitro Binding affinity towards alpha-1-beta-1-gamma-delta nAChR was determined; assay type: protein-complex assay
[4] = target: Neuronal acetylcholine receptor subunit alpha-7 (Mus musculus, UniProt P49582); assay: In vitro Binding affinity towards alpha-7 nAChR was determined
[5] = target: Neuronal acetylcholine receptor; alpha4/beta2 (Homo sapiens, UniProt P17787+P43681); assay: In vitro Binding affinity towards Nicotinic acetylcholine receptor alpha4-beta2 was determined; assay type: protein-complex assay
[6] = target: Neuronal acetylcholine receptor subunit alpha-7 (Homo sapiens, UniProt P36544); assay: Effective concentration that causes inhibition of alpha-7 nAChR, was determined. Values are expressed as EC50 +/- SEM.; assay type: functional
[7] = target: T1, Acetylcholine receptor; alpha1/beta1/delta/gamma; assay: In vitro Binding affinity towards alpha-1-beta-1-gamma delta nAChR was determined

Neuronal acetylcholine receptor; alpha4/beta2, sequence (P17787 whole entry): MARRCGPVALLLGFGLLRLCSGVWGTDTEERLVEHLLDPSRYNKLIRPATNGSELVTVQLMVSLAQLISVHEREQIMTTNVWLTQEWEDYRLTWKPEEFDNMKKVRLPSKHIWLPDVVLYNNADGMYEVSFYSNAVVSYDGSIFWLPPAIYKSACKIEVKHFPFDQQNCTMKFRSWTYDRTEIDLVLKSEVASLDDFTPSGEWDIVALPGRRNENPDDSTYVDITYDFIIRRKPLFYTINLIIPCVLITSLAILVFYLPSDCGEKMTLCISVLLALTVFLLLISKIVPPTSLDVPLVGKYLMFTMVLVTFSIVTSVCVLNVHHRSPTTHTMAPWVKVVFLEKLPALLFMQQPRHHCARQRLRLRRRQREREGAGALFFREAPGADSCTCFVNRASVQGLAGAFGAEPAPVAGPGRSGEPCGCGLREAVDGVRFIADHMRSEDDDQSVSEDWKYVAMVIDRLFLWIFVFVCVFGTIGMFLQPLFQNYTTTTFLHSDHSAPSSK
Neuronal acetylcholine receptor; alpha4/beta2, sequence (P43681 whole entry): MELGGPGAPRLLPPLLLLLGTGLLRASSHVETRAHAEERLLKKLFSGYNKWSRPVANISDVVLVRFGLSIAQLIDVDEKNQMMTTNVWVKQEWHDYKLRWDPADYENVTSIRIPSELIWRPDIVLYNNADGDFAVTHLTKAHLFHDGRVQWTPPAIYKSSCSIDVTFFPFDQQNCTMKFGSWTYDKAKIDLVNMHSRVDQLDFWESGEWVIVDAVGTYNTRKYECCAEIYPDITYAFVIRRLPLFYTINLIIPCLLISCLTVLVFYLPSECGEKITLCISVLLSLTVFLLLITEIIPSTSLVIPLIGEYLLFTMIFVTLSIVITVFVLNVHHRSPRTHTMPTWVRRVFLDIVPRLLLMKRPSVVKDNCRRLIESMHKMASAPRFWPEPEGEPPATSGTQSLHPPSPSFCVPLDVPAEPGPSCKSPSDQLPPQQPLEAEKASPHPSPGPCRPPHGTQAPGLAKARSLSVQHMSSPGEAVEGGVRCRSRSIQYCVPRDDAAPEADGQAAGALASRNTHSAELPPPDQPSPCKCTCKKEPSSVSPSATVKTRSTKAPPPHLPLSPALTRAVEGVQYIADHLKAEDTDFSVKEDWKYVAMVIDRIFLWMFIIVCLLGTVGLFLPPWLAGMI
Neuronal acetylcholine receptor subunit alpha-7 (Mus musculus), sequence (P49582 whole entry): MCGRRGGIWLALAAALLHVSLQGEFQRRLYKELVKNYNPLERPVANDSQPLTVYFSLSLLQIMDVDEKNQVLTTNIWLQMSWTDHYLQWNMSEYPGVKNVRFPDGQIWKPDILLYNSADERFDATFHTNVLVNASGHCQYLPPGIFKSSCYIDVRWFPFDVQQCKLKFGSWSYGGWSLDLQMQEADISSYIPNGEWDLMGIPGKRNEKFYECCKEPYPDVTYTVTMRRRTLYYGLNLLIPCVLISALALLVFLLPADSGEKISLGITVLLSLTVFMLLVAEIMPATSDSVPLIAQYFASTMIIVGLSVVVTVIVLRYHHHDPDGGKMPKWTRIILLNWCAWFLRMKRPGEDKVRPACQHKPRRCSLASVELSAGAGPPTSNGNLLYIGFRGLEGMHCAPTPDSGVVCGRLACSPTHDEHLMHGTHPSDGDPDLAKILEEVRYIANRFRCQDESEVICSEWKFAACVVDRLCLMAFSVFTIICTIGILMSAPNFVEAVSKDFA
Neuronal acetylcholine receptor subunit alpha-7 (Mus musculus, UniProt P49582), sequence (P49582 whole entry): as above
T1 sequence (P02708 whole entry): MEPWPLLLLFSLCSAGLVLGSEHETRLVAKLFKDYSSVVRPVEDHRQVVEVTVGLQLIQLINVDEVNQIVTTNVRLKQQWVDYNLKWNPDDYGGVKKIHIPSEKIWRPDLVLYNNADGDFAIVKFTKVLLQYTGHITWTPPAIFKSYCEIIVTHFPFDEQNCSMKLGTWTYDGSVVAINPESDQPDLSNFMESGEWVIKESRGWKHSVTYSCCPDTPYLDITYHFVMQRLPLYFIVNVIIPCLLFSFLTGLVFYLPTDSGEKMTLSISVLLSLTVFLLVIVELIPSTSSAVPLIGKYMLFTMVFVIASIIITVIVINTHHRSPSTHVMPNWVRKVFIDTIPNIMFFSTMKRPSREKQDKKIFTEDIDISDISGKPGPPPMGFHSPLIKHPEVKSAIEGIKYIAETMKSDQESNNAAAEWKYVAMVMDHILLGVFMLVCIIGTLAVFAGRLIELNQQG
T1 sequence (P07510 whole entry): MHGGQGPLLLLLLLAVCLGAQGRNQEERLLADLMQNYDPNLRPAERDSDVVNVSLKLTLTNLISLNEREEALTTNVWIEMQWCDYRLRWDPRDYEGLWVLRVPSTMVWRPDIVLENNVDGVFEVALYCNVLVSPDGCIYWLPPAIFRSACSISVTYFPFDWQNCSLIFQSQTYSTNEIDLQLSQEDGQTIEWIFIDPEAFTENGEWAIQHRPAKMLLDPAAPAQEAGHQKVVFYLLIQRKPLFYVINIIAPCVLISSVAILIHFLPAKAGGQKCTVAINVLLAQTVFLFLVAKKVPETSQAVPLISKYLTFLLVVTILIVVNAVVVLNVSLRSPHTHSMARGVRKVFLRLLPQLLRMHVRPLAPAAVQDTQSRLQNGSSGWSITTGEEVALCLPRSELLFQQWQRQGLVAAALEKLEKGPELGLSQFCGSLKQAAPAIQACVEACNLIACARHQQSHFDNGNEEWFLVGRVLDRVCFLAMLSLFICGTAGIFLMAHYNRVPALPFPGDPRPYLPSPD
T1 sequence (P11230 whole entry): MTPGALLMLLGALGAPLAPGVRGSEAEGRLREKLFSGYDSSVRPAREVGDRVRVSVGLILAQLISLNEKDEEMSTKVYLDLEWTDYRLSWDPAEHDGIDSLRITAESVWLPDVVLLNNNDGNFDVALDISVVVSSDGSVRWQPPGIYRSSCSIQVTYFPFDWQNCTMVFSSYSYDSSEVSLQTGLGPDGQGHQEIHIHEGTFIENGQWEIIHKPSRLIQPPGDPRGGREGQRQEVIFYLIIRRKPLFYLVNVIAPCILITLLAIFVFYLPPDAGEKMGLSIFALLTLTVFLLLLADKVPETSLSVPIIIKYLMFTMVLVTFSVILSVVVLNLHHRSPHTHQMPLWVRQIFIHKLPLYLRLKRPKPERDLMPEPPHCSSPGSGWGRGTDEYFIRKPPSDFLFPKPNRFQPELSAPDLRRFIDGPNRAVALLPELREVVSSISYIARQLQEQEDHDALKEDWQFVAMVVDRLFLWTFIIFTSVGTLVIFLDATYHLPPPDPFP
T1 sequence (Q07001 whole entry): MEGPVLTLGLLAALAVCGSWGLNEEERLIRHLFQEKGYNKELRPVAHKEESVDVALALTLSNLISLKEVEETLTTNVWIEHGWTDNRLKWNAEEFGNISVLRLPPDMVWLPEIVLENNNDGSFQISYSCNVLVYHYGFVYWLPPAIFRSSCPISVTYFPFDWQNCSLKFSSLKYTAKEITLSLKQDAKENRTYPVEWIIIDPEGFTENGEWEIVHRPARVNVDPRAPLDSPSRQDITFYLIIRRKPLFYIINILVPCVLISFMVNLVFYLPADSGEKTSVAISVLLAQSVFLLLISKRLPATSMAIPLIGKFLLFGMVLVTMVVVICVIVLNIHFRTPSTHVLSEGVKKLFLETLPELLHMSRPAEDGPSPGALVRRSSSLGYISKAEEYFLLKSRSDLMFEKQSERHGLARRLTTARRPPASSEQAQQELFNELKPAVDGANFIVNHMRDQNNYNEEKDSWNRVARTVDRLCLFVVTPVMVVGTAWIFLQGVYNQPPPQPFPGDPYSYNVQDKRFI
Neuronal acetylcholine receptor subunit alpha-7 (Homo sapiens, UniProt P36544), sequence (P36544 whole entry): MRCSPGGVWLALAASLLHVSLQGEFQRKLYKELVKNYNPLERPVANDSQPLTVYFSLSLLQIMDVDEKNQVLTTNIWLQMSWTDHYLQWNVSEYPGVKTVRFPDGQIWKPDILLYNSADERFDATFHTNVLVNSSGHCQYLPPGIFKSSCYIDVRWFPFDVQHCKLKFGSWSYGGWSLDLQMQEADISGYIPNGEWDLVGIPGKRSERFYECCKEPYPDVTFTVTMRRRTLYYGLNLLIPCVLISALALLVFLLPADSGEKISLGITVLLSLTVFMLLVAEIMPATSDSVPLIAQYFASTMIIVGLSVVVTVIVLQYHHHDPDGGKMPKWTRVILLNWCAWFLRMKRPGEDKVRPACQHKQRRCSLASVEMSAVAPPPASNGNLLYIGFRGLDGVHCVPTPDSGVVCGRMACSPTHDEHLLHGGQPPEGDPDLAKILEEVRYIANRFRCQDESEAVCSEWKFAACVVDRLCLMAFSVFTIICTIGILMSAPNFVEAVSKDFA

How did the Efficacy [1] turn out when `CC(=O)OCC[N+](C)(C)C` was run?
The Efficacy was 100%.

Which Ki [2] does the source give for `C[N+]1(C)C2CCC1CC(OC(=O)c1c[nH]c3ccccc13)C2` (configuration not stated) here?
Its Ki is 0.0072 µM.

What about the Ki [3] of the same compound?
The Ki was 3 µM.

What about the Ki [4] of the same compound?
The Ki was 0.0064 µM.

And the Ki [5]?
Its Ki is 7.8 µM.

And the Efficacy [1]?
The Efficacy was 13%.

What about the EC50 [6] of the same compound?
Its EC50 is 0.28 µM.

For `O=C(OC1CN2CCC1CC2)n1ccc2ccccc21` (configuration not stated), which Ki [2] is on record?
Its Ki is 0.01 µM.

What about the Ki [4] of the same compound?
Its Ki is 0.0088 µM.

And the Ki [5]?
Its Ki is 14 µM.

And the Efficacy [1]?
The Efficacy was 17%.

What about the EC50 [6] of the same compound?
Its EC50 is 4.8 µM.

What does the source list for `CN1CCC[C@H]1c1cccnc1` [NICOTINE]?
Ki [2]: 71 µM; Ki [7]: 5.5 µM; Ki [4]: 0.48 µM; Efficacy [1]: 53%

What does the source list for `CN1[C@@H]2CC[C@H]1C[C@@H](OC(=O)c1c[nH]c3ccccc13)C2` [TROPISETRON]?
Ki [3]: 27 µM; Ki [5]: 55 µM

What does the source list for `Cc1nccn1CC1CCc2c(c3ccccc3n2C)C1=O` (configuration not stated) [ONDANSETRON]?
Ki [4]: > 3 µM; Ki [5]: 46 µM

With `CN1C2CCCC1CC(NC(=O)c1nn(C)c3ccccc13)C2` (configuration not stated) [GRANISETRON] as the compound, how does the Ki [4] read?
Its Ki is over 10 µM.

What about the Ki [5] of the same compound?
Its Ki is 38 µM.
